Measurements from PMC12785803, “Novel ACE-Inhibitory Peptides from Royal Jelly Proteins: Comprehensive Screening, Mechanistic Insights, and Endothelial Protection” (Foods, 2025).
No end group written: not given here.

Legend:
EA.hy926 cells [1] = assay: Wound healing assay (Ang II-induced migration); format: cell-based; conditions: captopril 0.2 mg/mL, Ang II-induced
Method: The effect of peptides on endothelial cell migration was evaluated using a wound healing assay. Briefly, EA.hy926 cells were seeded into 6-well plates and cultured at 37 °C in a humidified atmosphere containing 5% CO2. When the cells reached full confluence, they were treated with 1 μmol/L Ang II for 12 h to induce endothelial dysfunction. Subsequently, a straight scratch was created across the cell monolayer using a sterile 200 μL pipette tip. Detached cells were gently removed by rinsing with PBS, leaving a clear cell-free wound area. To minimize proliferation interference, cells were then incubated in high-glucose DMEM containing 1% FBS, supplemented with different concentrations of the peptides or captopril. Images of the same wound area were captured at 0 h, 6 h, and 24 h using a fluorescence microscope (Axio Observer, Zeiss, Jena, Germany), and the wound area was quantified using ImageJ software (version 1.54g).

EA.hy926 cells [2] = assay: NO level in Ang II-stimulated cells (Griess); format: cell-based; conditions: captopril after Ang II; control 109.8, Ang II 58.95
Method: (§1) To evaluate the effect of the peptide on endothelial function, NO and ET-1 levels were measured in this study. Briefly, EA.hy926 cells were seeded in 6-well plates at a density of 4 × 10^5 cells/well and allowed to adhere overnight. After removing the medium, cells were incubated with 1 μmol/L Ang II for 12 h to induce endothelial dysfunction. Subsequently, the peptide solutions at different concentrations (0.1, 0.2, and 0.4 mg/mL) or the captopril solutions were added, and the cells were incubated for an additional 24 h. For the blank control group, the cells received no treatment. After incubation, the culture supernatants were collected and centrifuged to remove debris. Both NO and ET-1 contents in the supernatants were quantified using commercial kits according to the manufacturer’s protocols. NO content was determined using the Griess reaction (OD = 550 nm), and ET-1 levels were measured via enzyme-linked immunosorbent assay (ELISA) (OD = 450 nm). Absorbance values were recorded at the corresponding wavelengths using a microplate reader (Spark 10M, Tecan, Männedorf, Switzerland).

EA.hy926 cells [3] = assay: ET-1 level in Ang II-stimulated cells (ELISA); format: cell-based; conditions: captopril after Ang II; control 13.82, Ang II 15.65
Method: as §1

EA.hy926 cells [4] = assay: GSH-Px activity in H2O2-damaged cells; format: cell-based; conditions: captopril; vs H2O2 group
Method: (§2) The activities of SOD and GSH-Px were assessed as follows. EA.hy926 cells were seeded in 6-well plates at 4 × 10^5 cells per well and cultured overnight. After attachment, the cells were serum-starved in high-glucose DMEM containing 1% FBS for 12 h, and then treated for 24 h with peptide solutions at the indicated concentrations or with captopril. […] After treatment, the cells were washed with ice-cold PBS, lysed on ice, and centrifuged to collect the supernatants. SOD and GSH-Px activities were measured spectrophotometrically at 550 nm and 412 nm, respectively, using a microplate reader. Enzyme activities were calculated, normalized to total protein content, and expressed as U/mg protein.

EA.hy926 cells [5] = assay: SOD activity in H2O2-damaged cells; format: cell-based; conditions: captopril; vs H2O2 group
Method: as §2

EA.hy926 cells [6] = assay: MTT cytotoxicity assay; conditions: EA.hy926, 24 h, 0.0625 to 1 mg/mL; ISO 10993-5 limit: viability above 70%
Method: Cell culture. EA.hy926 endothelial cells were cultured in high-glucose Dulbecco’s Modified Eagle Medium (DMEM) supplemented with 10% fetal bovine serum (FBS) and 1% penicillin–streptomycin. Cells were maintained in a humidified incubator at 37 °C with 5% CO2. When cell confluence reached approximately 70–80%, subculturing was performed for subsequent experiments.
Cytotoxicity assay. The cytotoxicity of the peptides was evaluated using the MTT assay [29]. […] After incubation at 37 °C for 4 h, the supernatant was carefully removed, and 150 μL of DMSO was added to dissolve the formazan crystals. The plate was shaken for 10 min, and the absorbance was measured at 490 nm using a microplate reader.

endothelial cells [7] = conditions: 48 h of treatment; 129% in the Ang II group; cited from earlier work
Text: All three concentrations produced highly similar su ...

endothelial cells [8] = tested on: endothelial cells; design: method as in PMID 37501259; conditions: Ang II-treated endothelial cells, cited from earlier work

For `C[C@H](CS)C(=O)N1CCC[C@H]1C(=O)O` [captopril], the Migration rate (EA.hy926 cells [1]; 6 h, Ang II alone 42.44) was 25.77 ± 2.49%, the Migration rate (EA.hy926 cells [1]; 24 h, Ang II alone 89.68) was 57.52 ± 1.92% and the NO level (EA.hy926 cells [2]) was 97.86 ± 4.47 μmol/g prot. For the same compound, the ET-1 content (EA.hy926 cells [3]) was 12.70 ± 0.48 pg/mg prot, the GSH-Px improvement (EA.hy926 cells [4]) was 38.8% and the SOD improvement (EA.hy926 cells [5]) was 70.9%.
In the case of PYPDWSFAK [PYPDWSFAK], the “Cytotoxicity” value (EA.hy926 cells [6]) is reported as “non-cytotoxic”.
In the case of SPIH [soybean protein-derived peptide], the Endothelial wound healing (endothelial cells [7]) is given as 92%, the NO content (endothelial cells [8]; 31.4 ± 0.7 before) is given as 43.7 ± 0.1 µmol/L and the NO increase (endothelial cells [8]) is given as 39.3%.
